Reference: US20190328825A1, “METHODS FOR TREATING AUTISM SPECTRUM DISORDER AND ASSOCIATED SYMPTOMS” (Arizona Board of Regents on behalf of Arizona State …, priority 2015, published 2019)

Columns and labels:
children with ASD [1] = test: Toleration of study medications / adverse effects
Text: The participants were given oral vancomycin (a non-absorbable broad spectrum antibiotic that stays in the GI tract) for 2 weeks to reduce levels of pathogenic bacteria, and then 1 day of low-volume colonoscopy prep MoviPrep® (a drink that flushes the bowels, to remove most remaining gut bacteria and vancomycin) to clear the residual vancomycin and feces. The vancomycin was intended to kill off harmful bacteria, the fasting was intended to remove any remaining bacteria and to minimize other luminal fecal material, and the colon cleanse helped remove the vancomycin and cleanse the lower GI Tract.
The rectal dose was administered under the direct supervision of the study physician, and the first oral dose was similarly administered in the presence of the physician. Participants were randomly assigned to either the oral or rectal route of administration. If one administration route was not tolerated, or if the family preferred the other route, then participants had the option of trying the other route. For the participants with initial oral dose, a lower oral maintenance dose (2.5×10^9 CFU) was followed for 8 weeks right after the major oral initial dose. Whereas, the major rectal initial dose was followed by waiting period of 1 week followed by a lower oral maintenance dose (2.5×10^9 CFU) for 7 weeks. The maintenance SHGM dose were self-administered orally every day up to week 10. After treatment was stopped, participants were monitored for another 8 weeks.
Prilosec (omeprazole) was administered daily to reduce stomach acid and thereby increase viability of the MTT, starting on the 12th day of oral vancomycin treatment and continuing until the end of the maintenance dose.

children with ASD [2] = test: Complete Blood Count / blood chemistry panel; format: in vivo, human
Text: The following minor changes were observed. There was a 5% decrease in potassium (p=0.01) from beginning to end of treatment, but all levels remain in the normal range. After the vancomycin (2nd week of study), there was a 8% increase in platelets (p=0.03). Four subjects had elevated levels at start, and only 2 had elevated levels after vancomycin. There was a 26% drop in blood urea nitrogen (BUN) (p=0.002), but all stayed in normal range. There was a 6% increase in albumin to globulin (A/G) ratio (p=0.03), with 1 slightly elevated. There was a 17% increase in aspartate amino transferase (AST) (p=0.01), but all remained in normal range. There was a 24% increase in alanine amino transferase (ALT) (p=0.003), where 1 remained elevated and 2 became slightly elevated. […] Slight changes (1-2%) in red blood cell indices (Mean corpuscular volume (MCV), Mean corpuscular hemoglobin (MCH), Mean corpuscular hemoglobin concentration (MCHC), and Red cell distribution width (RDW)) were observed.

[3] = human, in vivo, 40 mg/kg per day

COc1ccc2[nH]c([S+]([O-])Cc3ncc(C)c(OC)c3C)nc2c1 (stereo not drawn) [Prilosec, omeprazole]
toleration of study medication (children with ASD [1]; in vivo): generally well-tolerated

CN[C@H](CC(C)C)C(=O)N[C@H]1C(=O)N[C@@H](CC(N)=O)C(=O)N[C@H]2C(=O)N[C@H]3C(=O)N[C@H](C(=O)N[C@H](C(=O)O)c4cc(O)cc(O)c4-c4cc3ccc4O)[C@H](O)c3ccc(c(Cl)c3)Oc3cc2cc(c3O[C@@H]2O[C@H](CO)[C@@H](O)[C@H](O)[C@H]2O[C@H]2C[C@](C)(N)[C@H](O)[C@H](C)O2)Oc2ccc(cc2Cl)[C@H]1O [vancomycin]
platelets, BUN, A/G, AST, ALT (children with ASD [2]; 3rd and 4th tests): returned to similar to baseline
increase in alanine amino transferase (ALT) (children with ASD [2]; after the vancomycin): 24%
increase in albumin to globulin (A/G) ratio (children with ASD [2]; after the vancomycin): 6%
increase in platelets (children with ASD [2]; after the vancomycin (2nd week of study)): 8%
increase in aspartate amino transferase (AST) (children with ASD [2]; after the vancomycin, all remained in normal range): 17%
drop in blood urea nitrogen (BUN) (children with ASD [2]; after the vancomycin, all stayed in normal range): 26%
duration of behavioral reaction in most cases (children with ASD [1]; [3]): 1 to 3 days
onset of behavioral reaction after start of vancomycin (children with ASD [1]; [3]): 1 to 4 days
severity of behavioral symptoms (children with ASD [1]; hyperactivity, tantrumming/aggression): mild to moderate
duration of behavioral symptoms in 1 participant (children with ASD [1]; longest case): 3 weeks
children developing rash (children with ASD [1]; oral vancomycin with natural orange flavor, 18 children): One and one
adverse effects overall (children with ASD [1]; primarily mild to moderate hyperactivity and tantrums/aggression): only temporary adverse effects
cases of increased hyperactivity (children with ASD [1]; temporary, start of vancomycin): 7
cases of increased tantrums/aggression (children with ASD [1]; temporary, start of vancomycin): 5
